Two molecules from ChEMBL document CHEMBL6153058, “Pyrrolopyrazine Compounds as ERK5 Inhibitors for Treating Cancer” (ACS Med Chem Lett, 2025) can be followed below.

The assay has as its target Mitogen-activated protein kinase 7 (Homo sapiens, UniProt Q13164). The experiment in a line: Inhibition of ERK5 in human SN12C cells assessed as reduction in luminescence signal by bright glo reagent based luminescent cell assay.

The term IC50 denotes the concentration at which inhibition is half-maximal.

Sequence of Mitogen-activated protein kinase 7 (Q13164 whole entry): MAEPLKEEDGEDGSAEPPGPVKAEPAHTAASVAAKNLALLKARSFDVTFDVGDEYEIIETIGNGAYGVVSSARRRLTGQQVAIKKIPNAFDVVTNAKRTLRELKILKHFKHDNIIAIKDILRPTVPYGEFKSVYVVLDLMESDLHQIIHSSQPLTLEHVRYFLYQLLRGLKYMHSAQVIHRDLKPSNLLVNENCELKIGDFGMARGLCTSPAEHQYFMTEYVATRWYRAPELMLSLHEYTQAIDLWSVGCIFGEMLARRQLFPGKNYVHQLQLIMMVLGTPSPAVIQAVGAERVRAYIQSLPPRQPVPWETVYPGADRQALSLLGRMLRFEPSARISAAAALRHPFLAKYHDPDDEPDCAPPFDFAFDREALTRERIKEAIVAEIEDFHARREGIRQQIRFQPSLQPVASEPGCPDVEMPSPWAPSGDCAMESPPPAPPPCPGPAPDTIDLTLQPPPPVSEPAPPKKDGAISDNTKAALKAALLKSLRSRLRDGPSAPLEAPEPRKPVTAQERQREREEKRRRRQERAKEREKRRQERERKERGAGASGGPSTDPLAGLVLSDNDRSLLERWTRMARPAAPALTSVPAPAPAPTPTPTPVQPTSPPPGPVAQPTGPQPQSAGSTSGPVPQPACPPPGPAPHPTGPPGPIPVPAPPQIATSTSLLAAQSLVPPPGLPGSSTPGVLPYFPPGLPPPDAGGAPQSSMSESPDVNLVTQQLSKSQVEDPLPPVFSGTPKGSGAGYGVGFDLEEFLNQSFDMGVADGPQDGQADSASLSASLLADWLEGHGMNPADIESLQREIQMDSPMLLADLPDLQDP

`Nc1cc(OC(F)(F)F)ccc1C(=O)N1CCC(c2c[nH]c3ncc([C@H]4CC[C@H](O)CC4)nc23)CC1`: the IC50 was found to be 17 nM.

On to `Nc1cc(OC(F)(F)F)ccc1C(=O)N1CCC(c2c[nH]c3ncc(C4CCOC4)nc23)CC1` (configuration not stated), for which the IC50 was 21 nM.
